These are literature values, as cited in patent US20240277627A1, “NOVEL FLUOROCHEMICAL CARDIAC RESUSCITATION” (NUVOX PHARMA LLC, priority 2023, published 2024).

Structures are written as SMILES.

As to `FC(F)(F)C(F)(F)C(F)(F)C(F)(F)C(F)(F)F` [DDFP, n-dodecafluoropentane], for the setting “clears from the body via exhalation”, the “metabolism / route of clearance” value was “not metabolized”. Further, for the setting “humans”, the terminal half-life entry is given as “about 90 minutes”.
